# Test results published in patent US7425548B2, “Materials and methods for immune system stimulation” (Variety Chidren's Hospital, priority 2004, dated 2008).
# Assays:
# [1] = system: iNOS; test: iNOS induction immunoassay; assay type: cell-based, human; details: cytoplasmic extract of cells treated with RR1
# Experimental: Inducible Nitric Oxide Synthase (iNOS) induction and Nitric oxide (NO) synthesis. Higher and long lasting release of NO is caused by the enzyme iNOS upon stimulation with […]. The iNOS induction by RR1 stimulation was assayed by QUANTIKINE iNOS immunoassay kit (R&D systems, Minneapolis, Minn.) which employs a sandwich enzyme immunoassay technique. The iNOS was assayed from the cytoplasmic extract of the cells treated with different concentrations of RR1. The samples and standards were pipetted in to the wells of the 96-well plate and any iNOS present was bound to the immobilized antibody. After washing away the unbound substances, an enzyme linked monoclonal antibody specific for iNOS was added. After washing away the unbound antibody enzyme reagent, the color developing substrate solution was added, the color development was stopped by stop solution and the absorbance was read at 450 nm with a reference wave length of 570 nm in the Bio-Rad plate reader.
# [2] = system: RAW264.7 macrophages; test: Nonopsonized binding of FITC-zymosan A bioparticles; assay type: cell-based, mouse; details: 1000 μg/ml RR1, 4° C.
# Experimental: RR1 inhibits the binding and internalization of nonopsonic binding of zymosan A bioparticles in a dose-dependent manner. The cells were incubated with RR1 for 1 hour on ice (4° C.) in DMEM containing 0.5% FBS followed by zymosan A biparticles for 1 hour on ice. The cells were warmed for 7 minutes at 37° C. for internalization of zymosan A bioparticles and intracellular FITC fluorescence analyzed in a Coulter Elite flow cytometer.
# Nonopsonized binding of RR1. To determine the inhibitory effect of RR1 on non-opsonized binding of zymosan A bioparticles, mouse monocyte/macrophage cells (0.5×10^6) were incubated with 0, 100, 500 and 1000 μg/ml of RR1 at 4° C. to prevent the local release of opsonins including complement (Ezekowitz, R. A. et al. J. Clin. Invest., 1985, 76:2368-2376; Brown, G. D. et al. J. Expt. Med., 2002, 196:407-412). After 1 hour incubation on ice, the cells were washed three times with pre-chilled culture medium, added FITC-conjugated zymosan A particles at a ratio of 25 particles/cell and kept on ice for another hour. The cells were washed with PBS twice and incubated in DMEM at 37° C. for 30 minutes in a CO2 incubator. The unbound zymosan particles were removed by extensive washing with medium and the intracellular fluorescence of the zymosan-FITC analyzed in a Coulter Elite flow cytometer.
# [3] = system: monocytes isolated from peripheral blood mononuclear cells; test: NO synthesis in monocytes; assay type: cell-based
# From the text: NO levels are also reported to play an important role in the modulation of Th cell differentiation and polarization. Yamasaki et al. (Yamasaki, A. et al. Yonago Acta Medica, 1998, 44:7-15) and Taylor-Robinson et al. (Taylor-Robinson, A. W. et al. Eur. J. Immunol., 1994, 24:980-984) reported an inhibitory role of NO on Th1 cytokines while Bauer et al. (Bauer, H. et al., Immunol, 1997, 90:205-211) reported the same for Th1 as well as Th2 cytokines by NO from activated T cells. […] The enzyme iNOS produced a high output of NO from macrophages upon stimulation. […] The absence of iNOS induction by RR1 supports the conclusion that there is an insignificant increase in the production of NO. […] IFN-α, IFN-γ and TNF-α are known up-regulators of NO synthesis (Shin, J. Y. et al. Immunopharmcol. Immunotoxicol., 2002, 24:469-482; Hirazumi, A. and Furusawa, E. Phytother Res., 1999, 13:380-387).
# [4] = system: human leukemic cells (CEM); test: Cytotoxicity of RR1 treated lymphocytes (functional assay, active caspase-3); assay type: cell-based; details: RR1 0-100 μg/ml, 24 hours, then co-incubation with CEM
# Experimental: Normal lymphocytes were treated with RR1 (0-100 μg/ml) for 24 hours in RPMI medium. The cells were washed and co-incubated with PKH26-labeled human leukemic CEM cells for 12 hours for the active NK cells to lyse the tumor cells. The cell mixtures were stained with FITC-labeled and activated caspase-3 monoclonal antibody. The percentage of PKH26+ and Caspase-3+ cells were quantified by analyzing in a Beckman-Coulter Elite flow cytometer (**p=0.01).
# Cytotoxicity of RR1 treated lymphocytes. To evaluate the enhanced cytotoxicity of activated lymphocytes, a functional assay was adopted using RR1-activated lymphocytes as effecter cells and human leukemic cells (CEM) as targets (Liu, L. et al. Nat. Med., 2002, 8:185-189; Jerome, K. R. et al. Nat. Med., 2003, 9:4-5). Briefly, normal lymphocytes (10^6/ml) were treated with different concentrations of RR1 in RPMI medium for 24 hours in a CO2 incubator at 37° C. […] The percentage of cells killed by the activated NK cells was determined by fixing the mixture with 1 ml of 2% paraformaldehyde solution for 30 minutes on ice followed by suspending in 0.5% Tween 20 in PBS. The cell mixture was stained with 7.5 μl of anti-active caspase-3-FITC antibody (BD Biosciences, CA) for 30 minutes at room temperature, washed with PBS and analyzed in a Coulter Elite Flow Cytometer.
# [5] = system: HEK293 cells transfected with TLR4/CD14/MD2; test: TLR signaling, IL-8 ELISA; assay type: cell-based, human; details: HEK/TLR4/CD14/MD2, 24 hours
# Experimental: (§1) TLR signaling. To determine the involvement of TLR signaling, parental HEK293 as well as HEK293 cells transfected with human TLR2, TLR6, TLR2/6 or TLR4/CD14/MD2 genes (cloned into pDUO plasmid), were used. These cells (0.5×10^6/ml) were incubated with 0-100 μg/ml of RR1 for 24 hours. Since these cells produce very low level of TNF-α and detectable levels of IL-8 upon activation, IL-8 secreted into the medium was analyzed using ELISA procedure. Incidentally, the IL-8 synthesis is also under the control of the transcription factor NF-κB.
# [6] = system: HEK293 cells transfected with TLR2; test: TLR signaling, IL-8 ELISA; assay type: cell-based, human; details: HEK/TLR2, 24 hours
# Experimental: as §1
# [7] = system: parental HEK293 cells; test: TLR signaling, IL-8 ELISA; assay type: cell-based, human; details: parental HEK, RR1 0-100 μg/ml, 24 hours
# Experimental: as §1
substance,measurement,setting,value
"(1,4)-α-D-glucan [RR1]",induction of iNOS,[1],did not stimulate the induction of iNOS significantly
same,inhibition of nonopsonic binding of FITC-zymosan A bioparticles (fluorescence intensity),[2],about 65%
same,NO levels with RR1 treatment,[3],did not induce any higher levels of NO
same,killing of tumor cells by RR1-treated normal lymphocytes,[4],dose-dependent enhancement of cytotoxicity
same,IL-8 production,[5],did not induce IL-8 production
same,IL-8 production,[6],did not induce IL-8 production
same,IL-8 production,[7],did not induce IL-8 production
